Common to all, as to format: biochemical
In assay [1] the target is CDK2-cyclin A (Homo sapiens, UniProt P24941). The assay is described as follows: Kinase assay (radioactive phosphate incorporation), CDK2-cyclin A. The settings on record: read-out: Kinase Inhibition pIC50 CDK2-cyclin A (converted). The protocol:
Kinase assays. The compounds of the invention above were investigated for their ability to inhibit the enzymatic activity of various protein kinases (Table 2). This was achieved by measurement of incorporation of radioactive phosphate from ATP into appropriate polypeptide substrates. Recombinant protein kinases and kinase complexes were produced or obtained commercially. Assays were performed using 96-well plates and appropriate assay buffers (typically 25 mM β-glycerophosphate, 20 mM MOPS, 5 mM EGTA, 1 mM DTT, 1 mM […], pH 7.4), into which were added 2-4 μg of active enzyme with appropriate substrates. The reactions were initiated by addition of Mg/ATP mix (15 mM MgCl2+100 μM ATP with 30-50 kBq per well of [γ-^32P]-ATP) and mixtures incubated as required at 30° C. Reactions were stopped on ice, followed by filtration through p81 filterplates or GF/C filterplates (Whatman Polyfiltronics, Kent, UK). After washing 3 times with 75 mM aq orthophosphoric acid, plates were dried, scintillant added and incorporated radioactivity measured in a scintillation counter (TopCount, Packard Instruments, Pangbourne, Berks, UK). Compounds for kinase assay were made up as 10 mM stocks in DMSO and diluted into 10% DMSO in assay buffer.

The target in assay [2] is T1, Aurora A kinase (Homo sapiens, UniProt O14965).
T1 construct: purchased
T1 sequence (O14965 1-403): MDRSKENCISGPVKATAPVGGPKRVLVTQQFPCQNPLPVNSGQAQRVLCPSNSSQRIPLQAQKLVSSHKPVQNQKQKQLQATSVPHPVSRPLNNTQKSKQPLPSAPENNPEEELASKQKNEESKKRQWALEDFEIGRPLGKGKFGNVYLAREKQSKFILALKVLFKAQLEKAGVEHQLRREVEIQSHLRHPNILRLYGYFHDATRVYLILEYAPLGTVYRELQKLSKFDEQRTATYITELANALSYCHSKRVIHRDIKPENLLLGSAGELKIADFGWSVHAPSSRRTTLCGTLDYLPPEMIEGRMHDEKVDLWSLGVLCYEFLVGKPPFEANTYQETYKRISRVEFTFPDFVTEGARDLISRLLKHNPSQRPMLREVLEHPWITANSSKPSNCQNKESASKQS
The assay is described as follows: Aurora-A (human) kinase assay (Kemptide substrate). The settings on record: pIC50 is -log(IC50, M); 15 μM ATP; read-out: Kinase Inhibition pIC50 Aurora A kinase (converted). In short, it runs like this:
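Kemptide (LRRASLG, 200 μM) phosphorylation by 5-10 ng commercial aurora-A measured as [γ-33P] incorporation at 15 μM ATP with 10 mM Mg acetate, pH 7.0 MOPS buffer. Reaction ran 40 min at room temperature; acid-stopped, captured on P81 filters, scintillation read.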

Assay [3] has as its target CDK4-cyclin D1 (Homo sapiens, UniProt P11802). The assay is described as follows: Kinase assay (radioactive phosphate incorporation), CDK4-cyclin D1. The settings on record: read-out: Kinase Inhibition pIC50 CDK4-cyclin D1 (converted). The method, boiled down:
(§1)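 Inhibition measured as 32P transfer from ATP (100 μM, 15 mM MgCl2) onto peptide substrates at 30° C. Each assay used 2-4 μg active recombinant enzyme in pH 7.4 buffer. Reactions stopped on ice, filtered, acid-washed and counted; compounds diluted into 10% DMSO in assay buffer.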

The target in assay [4] is CDK2-cycline E (Homo sapiens, UniProt P24941). The assay is described as follows: Kinase assay (radioactive phosphate incorporation), CDK2-cyclin E. The settings on record: read-out: Kinase Inhibition pIC50 CDK2-cycline E (converted). The method, boiled down:
as §1

The target in assay [5] is GSK3b (Homo sapiens, UniProt P49841). As to the kind of experiment: Kinase assay (radioactive phosphate incorporation), GSK-3b. The settings on record: read-out: Kinase Inhibition pIC50 GSK-3b (converted). In short, it runs like this: as §1
Sequence of GSK3b (P49841 whole entry, species assumed): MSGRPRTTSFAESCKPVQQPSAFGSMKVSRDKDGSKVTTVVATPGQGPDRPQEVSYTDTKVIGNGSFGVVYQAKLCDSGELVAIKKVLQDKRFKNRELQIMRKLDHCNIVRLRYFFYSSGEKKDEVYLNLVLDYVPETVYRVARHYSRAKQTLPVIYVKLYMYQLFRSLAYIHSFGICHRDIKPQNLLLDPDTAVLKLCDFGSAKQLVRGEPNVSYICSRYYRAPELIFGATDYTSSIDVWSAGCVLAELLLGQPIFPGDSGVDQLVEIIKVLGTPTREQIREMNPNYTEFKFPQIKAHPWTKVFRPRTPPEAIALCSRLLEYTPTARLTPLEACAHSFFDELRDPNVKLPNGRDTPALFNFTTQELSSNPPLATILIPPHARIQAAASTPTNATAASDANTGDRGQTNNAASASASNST
Assay [6] addresses CDK7/cyclin H (Homo sapiens, UniProt P50613). As to the kind of experiment: CDK 7 assay (CTD peptide substrate). Particulars: read-out: Kinase Inhibition pIC50 CDK7-cyclin H (converted). In short, it runs like this: (§2)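 32P transfer from 100 μM ATP (trace [γ-32P]ATP) to a biotinyl CTD (YSPTSPS)4 peptide was measured after 45 min at 30 °C in pH 7.2 MOPS buffer, 15 mM MgCl2, using recombinant human CDK7/cyclin H or CDK9/cyclin T1. Signal read by filter binding and scintillation counting.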

Assay [7] has as its target CDK9/cyclin T1 (Homo sapiens, UniProt P50750). The assay is described as follows: CDK 9 assay (CTD peptide substrate). The settings on record: read-out: Kinase Inhibition pIC50 CDK9-cyclin T1 (converted). The method, boiled down:
as §2

Assay [8] concerns the target CDK1-cyclin B (Homo sapiens, UniProt P06493). As to the kind of experiment: Kinase assay (radioactive phosphate incorporation), CDK1-cyclin B. The settings on record: read-out: Kinase Inhibition pIC50 CDK1-cyclin B (converted). The method, boiled down:
as §1

Sequence of CDK7/cyclin H (P50613 whole entry): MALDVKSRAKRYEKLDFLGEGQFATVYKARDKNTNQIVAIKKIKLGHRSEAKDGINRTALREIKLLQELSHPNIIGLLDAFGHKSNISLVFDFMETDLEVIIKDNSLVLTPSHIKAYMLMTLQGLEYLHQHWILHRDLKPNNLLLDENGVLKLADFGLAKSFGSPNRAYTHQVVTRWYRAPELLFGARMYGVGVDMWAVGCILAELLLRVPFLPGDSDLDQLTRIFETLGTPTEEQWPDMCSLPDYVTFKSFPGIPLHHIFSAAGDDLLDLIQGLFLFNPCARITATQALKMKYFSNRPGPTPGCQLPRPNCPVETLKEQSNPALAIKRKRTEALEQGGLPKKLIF
Sequence of CDK7/cyclin H (P51946 whole entry partner): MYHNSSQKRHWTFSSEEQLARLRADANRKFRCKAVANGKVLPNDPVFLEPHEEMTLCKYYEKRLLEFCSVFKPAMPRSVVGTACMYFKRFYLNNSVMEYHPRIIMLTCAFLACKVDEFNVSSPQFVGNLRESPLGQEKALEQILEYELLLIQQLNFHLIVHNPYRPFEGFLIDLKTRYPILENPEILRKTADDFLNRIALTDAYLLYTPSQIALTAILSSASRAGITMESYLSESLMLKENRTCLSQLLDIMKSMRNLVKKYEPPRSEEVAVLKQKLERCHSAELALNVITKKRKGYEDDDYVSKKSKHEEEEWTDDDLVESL
Sequence of CDK9/cyclin T1 (P50750 whole entry): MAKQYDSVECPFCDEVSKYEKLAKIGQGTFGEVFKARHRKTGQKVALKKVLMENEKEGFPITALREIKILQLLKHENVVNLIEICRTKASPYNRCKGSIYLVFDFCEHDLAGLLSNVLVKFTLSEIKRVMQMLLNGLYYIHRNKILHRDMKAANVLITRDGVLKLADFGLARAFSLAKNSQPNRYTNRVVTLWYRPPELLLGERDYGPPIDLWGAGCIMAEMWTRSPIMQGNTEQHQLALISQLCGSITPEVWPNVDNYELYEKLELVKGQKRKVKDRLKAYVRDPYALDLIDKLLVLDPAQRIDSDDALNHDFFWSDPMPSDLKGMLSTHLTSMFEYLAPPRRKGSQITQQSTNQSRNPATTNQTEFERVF
Sequence of CDK9/cyclin T1 (O60563 whole entry partner): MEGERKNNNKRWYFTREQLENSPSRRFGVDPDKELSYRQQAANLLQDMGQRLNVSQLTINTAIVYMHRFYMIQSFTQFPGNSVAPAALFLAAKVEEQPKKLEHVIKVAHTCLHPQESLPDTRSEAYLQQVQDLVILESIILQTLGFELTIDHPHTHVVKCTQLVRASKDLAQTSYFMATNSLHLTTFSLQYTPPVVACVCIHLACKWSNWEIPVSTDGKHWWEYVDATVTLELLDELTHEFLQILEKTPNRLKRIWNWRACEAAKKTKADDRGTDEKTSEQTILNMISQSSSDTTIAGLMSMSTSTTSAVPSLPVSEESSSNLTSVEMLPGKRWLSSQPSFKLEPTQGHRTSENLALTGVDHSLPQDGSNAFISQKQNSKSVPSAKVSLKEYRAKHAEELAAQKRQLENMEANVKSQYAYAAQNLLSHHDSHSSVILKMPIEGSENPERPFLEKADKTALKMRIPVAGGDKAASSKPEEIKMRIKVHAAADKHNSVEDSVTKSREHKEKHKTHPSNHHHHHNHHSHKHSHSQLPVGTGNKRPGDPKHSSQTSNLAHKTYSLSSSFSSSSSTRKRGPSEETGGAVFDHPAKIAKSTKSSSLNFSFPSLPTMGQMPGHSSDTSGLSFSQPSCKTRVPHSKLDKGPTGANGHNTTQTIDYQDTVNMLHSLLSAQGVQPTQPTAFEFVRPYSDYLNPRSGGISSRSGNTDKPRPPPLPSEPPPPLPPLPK
Sequence of CDK4-cyclin D1 (P11802 whole entry): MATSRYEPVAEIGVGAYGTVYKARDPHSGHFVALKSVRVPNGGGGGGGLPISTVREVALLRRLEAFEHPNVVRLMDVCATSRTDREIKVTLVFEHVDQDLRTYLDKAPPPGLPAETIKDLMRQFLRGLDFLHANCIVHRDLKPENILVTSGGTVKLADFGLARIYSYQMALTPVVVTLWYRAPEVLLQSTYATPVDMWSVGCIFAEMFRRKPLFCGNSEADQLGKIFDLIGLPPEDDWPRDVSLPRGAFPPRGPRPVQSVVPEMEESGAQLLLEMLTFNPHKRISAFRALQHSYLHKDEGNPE
Sequence of CDK4-cyclin D1 (P24385 whole entry partner): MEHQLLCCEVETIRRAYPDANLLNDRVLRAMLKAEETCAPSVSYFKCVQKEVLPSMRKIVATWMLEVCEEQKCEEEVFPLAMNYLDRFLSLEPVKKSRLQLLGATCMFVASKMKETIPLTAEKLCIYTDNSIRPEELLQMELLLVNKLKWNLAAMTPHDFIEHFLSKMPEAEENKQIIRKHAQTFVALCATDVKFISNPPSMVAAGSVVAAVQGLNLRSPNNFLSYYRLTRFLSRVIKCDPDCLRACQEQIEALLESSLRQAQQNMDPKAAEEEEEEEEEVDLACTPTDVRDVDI
Sequence of CDK1-cyclin B (P06493 whole entry): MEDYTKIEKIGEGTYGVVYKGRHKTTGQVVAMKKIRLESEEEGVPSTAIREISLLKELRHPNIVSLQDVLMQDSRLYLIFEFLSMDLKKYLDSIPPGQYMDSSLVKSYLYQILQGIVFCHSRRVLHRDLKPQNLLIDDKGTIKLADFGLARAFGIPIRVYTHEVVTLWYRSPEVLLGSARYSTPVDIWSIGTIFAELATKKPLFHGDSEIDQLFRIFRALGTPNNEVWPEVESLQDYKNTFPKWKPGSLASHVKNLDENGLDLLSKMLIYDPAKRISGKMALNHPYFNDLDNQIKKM
Sequence of CDK1-cyclin B (P14635 whole entry partner): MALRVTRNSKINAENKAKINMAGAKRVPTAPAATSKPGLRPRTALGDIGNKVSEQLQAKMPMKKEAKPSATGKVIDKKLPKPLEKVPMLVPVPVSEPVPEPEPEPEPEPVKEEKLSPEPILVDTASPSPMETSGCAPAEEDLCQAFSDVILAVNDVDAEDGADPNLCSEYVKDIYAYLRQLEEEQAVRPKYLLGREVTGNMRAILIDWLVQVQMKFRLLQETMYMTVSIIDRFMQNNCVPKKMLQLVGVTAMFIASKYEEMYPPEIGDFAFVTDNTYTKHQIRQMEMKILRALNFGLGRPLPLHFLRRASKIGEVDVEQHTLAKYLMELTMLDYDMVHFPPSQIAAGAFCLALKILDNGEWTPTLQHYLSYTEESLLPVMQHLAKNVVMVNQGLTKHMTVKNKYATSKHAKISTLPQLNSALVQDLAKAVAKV

Take `CNS(=O)(=O)c1cccc(Nc2nccc(-c3sc(C)nc3C)n2)c1` [Compound 33, 3-[4-(2,4-Dimethyl-thiazol-5-yl)-pyrimidin-2-ylamino]-N-methyl-benzenesulfonamide]: the IC50 in assay [1] was 200 nM; in assay [2], 1260 nM; in assay [3], 200 nM; in assay [4], 50.1 nM; in assay [5], 200 nM; in assay [6] it was 126 nM. Moreover, the IC50 in assay [7] is 10 nM; in assay [8], 501 nM.

Take `Cc1nc(C)c(-c2ccnc(Nc3cccc(S(C)(=O)=O)c3)n2)s1` [Compound 4, [4-(2,4-Dimethyl-thiazol-5-yl)-pyrimidin-2-yl]-(3-methanesulfonyl-phenyl)-amine]: the IC50 is 1000 nM in assay [1]; 251 nM in assay [2]; 1260 nM in assay [3]; 316 nM in assay [4]; 398 nM in assay [5]; 1000 nM in assay [6]. The IC50 in assay [7] was 251 nM; in assay [8], 501 nM.

With `Cc1nc(C)c(-c2ccnc(Nc3ccc(S(=O)(=O)NCCO)cc3)n2)s1` [Compound 69, 4-[4-(2,4-Dimethyl-thiazol-5-yl)-pyrimidin-2-ylamino]-N-(2-hydroxy-ethyl)-benzenesulfonamide], the IC50 in assay [1] is 20 nM; in assay [2], 79.4 nM; in assay [3] it was 1000 nM; in assay [4] it was 10 nM; in assay [5] it was 1580 nM; in assay [6], 2000 nM. Also, the IC50 was 398 nM in assay [7] and 10 nM in assay [8].

For `CNc1nc(C)c(-c2ccnc(Nc3ccc(S(=O)(=O)NCCOC)cc3)n2)s1` [Compound 40, N-(2-Methoxy-ethyl)-4-[4-(4-methyl-2-methylamino-thiazol-5-yl)-pyrimidin-2-ylamino]-benzenesulfonamide], the IC50 in assay [1] is 15.8 nM; in assay [2], 5.01 nM; in assay [4], 3.16 nM; in assay [5], 501 nM; in assay [7], 158 nM; in assay [8], 79.4 nM.

Take `CNc1nc(C)c(-c2ccnc(Nc3cccc(S(=O)(=O)NC(C)=O)c3)n2)s1` [Compound 63, N-Acetyl-3-[4-(4-methyl-2-methylamino-thiazol-5-yl)-pyrimidin-2-ylamino]-benzenesulfonamide]: the IC50 was 3160 nM in assay [1]; 1580 nM in assay [2]; 501 nM in assay [3]; 631 nM in assay [4]; 1580 nM in assay [5]; 2510 nM in assay [6]. Besides, the results for the IC50 in assay [7] and in assay [8] were 398 nM and 6310 nM, respectively.

Consider `CCNc1nc(C)c(-c2ccnc(Nc3ccc(S(=O)(=O)NCCOC)cc3)n2)s1` [Compound 39, 4-[4-(2-Ethylamino-4-methyl-thiazol-5-yl)-pyrimidin-2-ylamino]-N-(2-methoxy-ethyl)-benzenesulfonamide], for which the IC50 in assay [1] was 12.6 nM; in assay [2], 126 nM; in assay [3] it was 501 nM; in assay [4] it was 15.8 nM; in assay [5] it was 5010 nM; in assay [6], 631 nM. The figures for the IC50 in assay [7] and in assay [8] were 200 nM and 50.1 nM, respectively.

Consider `Cc1nc(C)c(-c2ccnc(Nc3cccc(S(=O)(=O)NCCO)c3)n2)s1` [Compound 78, 3-[4-(2,4-Dimethyl-thiazol-5-yl)-pyrimidin-2-ylamino]-N-(2-hydroxy-ethyl)-benzenesulfonamide], for which the IC50 was 2000 nM in assay [1]; 631 nM in assay [2]; 501 nM in assay [3]; 316 nM in assay [4]; 1000 nM in assay [5]; 1260 nM in assay [6]. The IC50 in assay [7] is 158 nM; in assay [8], 2000 nM.

Consider `COCCNS(=O)(=O)c1ccc(Nc2nccc(-c3sc(N)nc3C)n2)cc1` [Compound 41, 4-[4-(2-Amino-4-methyl-thiazol-5-yl)-pyrimidin-2-ylamino]-N-(2-methoxy-ethyl)-benzenesulfonamide], for which the IC50 in assay [1] is 15.8 nM; in assay [2], 50.1 nM; in assay [3], 501 nM; in assay [4], 7.94 nM; in assay [5], 794 nM; in assay [6], 3160 nM. Also, in assay [8], the IC50 is 50.1 nM.

For `Cc1nc(C)c(-c2ccnc(Nc3cccc(CNC(=O)c4ccccc4)c3)n2)s1` [Compound 9, N-{3-[4-(2,4-Dimethyl-thiazol-5-yl)-pyrimidin-2-ylamino]-benzyl}-benzamide], the IC50 in assay [1] is 1000 nM; in assay [2], 158 nM; in assay [3] it was 251 nM; in assay [4], 158 nM; in assay [5], 2000 nM; in assay [6], 5010 nM. For the same molecule, the IC50 was 501 nM in assay [7] and 631 nM in assay [8].

For the molecule `CC(=O)NS(=O)(=O)c1cccc(Nc2nccc(-c3sc(N)nc3C)n2)c1` [Compound 64, N-Acetyl-3-[4-(2-amino-4-methyl-thiazol-5-yl)-pyrimidin-2-ylamino]-benzenesulfonamide], the IC50 in assay [1] is 2510 nM; in assay [2], 200 nM; in assay [3] it was 398 nM; in assay [4], 398 nM; in assay [5] it was 1580 nM; in assay [6], 1580 nM. For the same molecule, the IC50 was 251 nM in assay [7] and 6310 nM in assay [8].

Turning to `Cc1nc(C)c(-c2ccnc(Nc3cccc(CNS(=O)(=O)C(F)(F)F)c3)n2)s1` [Compound 11, N-{3-[4-(2,4-Dimethyl-thiazol-5-yl)-pyrimidin-2-ylamino]-benzyl}-C,C,C-trifluoro-methanesulfonamide], the IC50 in assay [1] is 1580 nM; in assay [2], 200 nM; in assay [3], 1260 nM; in assay [4], 158 nM; in assay [5] it was 1580 nM; in assay [6] it was 631 nM. Further, the IC50 in assay [7] is 1260 nM; in assay [8], 1580 nM.

Values taken from patent publication US20090137572A1, “2-substituted-4-heteroaryl-pyrimidines useful for the treatment of proliferative disorders” (priority 2004, published 2009).
